Tests used:
MMP-9 = molecular target: T1, MMP-9 (Homo sapiens, UniProt P14780); assay: enzymatic hydrolysis of fluoresceinated collagen by MMP-9; type: biochemical; conditions: extended time assay, FIG. 8
T1 construct: Active MMP-9 enzyme was purchased from Calbiochem; purchased Calbiochem
Procedure: Two enzymatic assays were performed. The first assay measured the enzymatic hydrolysis of fluoresceinated collagen by MMP-9 as a function of time. […] The protein mixture was added to the collagen substrate, and was quickly mixed. Fluorescence emission intensity at 520 nm was measured as a function of time (excitation wavelength 495 nm) in a Shimadzu RF5301 fluorometer (Lakowicz, 1983). The fluorescein release assay was used to determine the inhibitory constant (Ki) of the peptide inhibitor ([I]) according to Segel (1993) via the use of Dixon plots (1/v vs. [I]), such that: slope=Km/(Vmax Ki [S]) (1) where Km is the Michaelis constant, Vmax is the reaction maximum velocity, and [S] is the substrate concentration.

[1] = test system: normal human epidermal keratinocytes; assay: keratinocyte proliferation, Cell Titer 96, OD 490 nm; type: cell-based; conditions: 48 hours
Procedure: The proliferative response of these human skin keratinocytes to the 19mer peptide was measured in a 96-well assay system using keratinocyte basal medium (KBM, Clonetics, catalog number CC-3103) as a control. […] The plates were incubated for 24 hours at 37° C. in a humidified 5% CO2 atmosphere. […] In addition, 100 μl of vehicle KBM was added to 10 wells as control. The plate was incubated for 48 hours at 37° C. in a humidified, 5% CO2 atmosphere. After incubation, 20 μl of Cell Titer 96 Aqueous One Solution was added to all wells. The plate was swirled gently and placed back in the incubator for 3 hours. The spectrophotometric absorbance of each well was read at 490 nm. Results were analyzed statistically using one-way ANOVA.

neutrophils = assay: neutrophil migration assay, transwell plate; type: cell-based, human; conditions: for Percent Neutrophil Migration exp. 1: 0.4% HSA; for Percent Neutrophil Migration exp. 2: 0.04% HSA
Procedure: Peptides were synthesized and purified by the Microchemical Facility at Emory University or by SigmaGenesis. All peptides were analyzed by mass spectrometry after HPLC to assess purity. Approximately 0.5–2.0 milligrams of peptide were used to make fresh stock solutions (5 mg/mL in HBSS/HSA) for each migration assay. The peptide stock solutions were used to make more dilute solutions (1 mg/mL, 100 μg/mL, 10 μg/mL, 1 μg/mL, 100 ng/mL, and 10 ng/mL) in HBSS/HSA for the assays.
Neutrophils were isolated from human blood (collected in Vacutainer™ tubes containing EDTA) by layering the blood/EDTA mixture (about 20 mL) on top of two layers of Histopaque™ 1119 (bottom layer, 18 mL) and 1077 (top layer, 7 mL) in 50 mL Falcon tubes. The tubes were centrifuged at 1800 rpm for 30 minutes (no brake). Four layers appeared in the tubes after the spin (from top to bottom layers): plasma, 1077, 1119, and red blood cells. The buffy coat between the plasma and 1077 layers contained lymphocytes, monocytes, and some platelets. The plasma layer, the buffy coat, and most of the 1077 layer was removed and discarded. The 1119 layer that contained the neutrophils was removed and was placed into a clean 50 mL tube. Dulbecco's Phosphate Buffered Saline (DPBS) was added to bring the volume to 50 mL. The cells were centrifuged for 15 minutes at 2100 rpm. The cells were resuspended in 10 mL of DPBS, transferred to 15 mL tubes, and centrifuged again for 10 minutes at 2000 rpm. This process was repeated to wash the cells a second time. After the supernatant was removed, the red blood cells were lysed by adding 6 mL of cold sterile water to each 15 mL of supernatant. Cells were mixed in the water for only 30 seconds. Six mL of cold 2% sterile saline was then added. Cells were centrifuged again for 10 minutes at 2000 rpm. The red supernatant (containing hemoglobin from red blood cells) was removed. This process of red blood cell lysis was repeated two more times to remove all of the red blood cells. After most of the red blood cells were removed, neutrophils were resuspended in 10 mL of HBSS/HSA for counting with trypan blue.
A neutrophil migration assay was performed in duplicate using a 24-well transwell plate (3 μm pore size for membrane). Transwell membranes were pre-moistened with 20–40 μL of HBSS/HSA (0.04–0.4%). Chemotactic solutions (500 μL) were added to the bottom of each well. […] Transwells were then placed into the chemotactic solutions. The plate was placed into the incubator (37° C., 5% CO2) for one hour. Cells that migrated through the membrane were counted using trypan blue.
In the neutrophil migration experiments, neutrophils that were isolated were approximately 95% viable. […]

[2] = test system: fibronectin in human skin fibroblast cell line; assay: fibronectin in human skin fibroblasts, EIA; type: cell-based; conditions: for Mean (fibronectin EIA, absorbance at 450 nm) / Median (fibronectin EIA, absorbance at 450 nm): 48 hours, n=2
Procedure: The fibroblast cells were first grown in a 96-well assay system using DMEM with 10% fetal bovine serum (FBS), both purchased from Sigma Chemical Co, St. Louis, Mo. […] Serum-free DMEM was used as a control. Cells were seeded into a 96 well plate at a concentration of 9×10^3 cells in 100 μl of DMEM containing 10% fetal bovine serum (FBS, Sigma Chemical Co., St. Louis, Mo.). The plate was incubated for 48 hours at 37° C. in a humidified 5% CO2 atmosphere. After incubation, the medium was aspirated and the wells were rinsed twice with 100 μl of serum-free DMEM. […] In addition, 100 μl of vehicle (serum-free DMEM) was added to 2 wells as a control. The plate was incubated for 48 hours at 37° C. in a humidified, 5% CO2 atmosphere.
The assay was performed using the recommended 100 μl of supernatant from each well of the 96-well plate. Standard buffer and stop solutions were freshly prepared before running the assay. A pre-antibody coated 96 well plate (provided with the kit) was used to transfer the test samples and the control. The plate was mixed, sealed, and incubated for 1 hour at 37° C. All the wells were washed three times (300ul) with washing buffer after removing sample solutions. 100ul of antibody-peroxidase conjugate solution was added into the wells. The plate was mixed, sealed, and incubated for one hour at 37° C. Solutions were removed and the wells were washed 3 times with washing buffer. All the wells were completely emptied at the end of washing from any liquid. 100 μl of substrate solution (hydrogen peroxide and tetramethylbenzidine in a buffered solution) was added to each well, and the plate was incubated at room temperature for 15 minutes. 100 μl of stop solution (freshly prepared 1N H2SO4) was added to each well in the same order as substrate. The plate was gently mixed and absorbance was read at 450 nm. Statistical analyses of data were performed using a one-way ANOVA.

T1 sequence (P14780 107-707 limits assumed): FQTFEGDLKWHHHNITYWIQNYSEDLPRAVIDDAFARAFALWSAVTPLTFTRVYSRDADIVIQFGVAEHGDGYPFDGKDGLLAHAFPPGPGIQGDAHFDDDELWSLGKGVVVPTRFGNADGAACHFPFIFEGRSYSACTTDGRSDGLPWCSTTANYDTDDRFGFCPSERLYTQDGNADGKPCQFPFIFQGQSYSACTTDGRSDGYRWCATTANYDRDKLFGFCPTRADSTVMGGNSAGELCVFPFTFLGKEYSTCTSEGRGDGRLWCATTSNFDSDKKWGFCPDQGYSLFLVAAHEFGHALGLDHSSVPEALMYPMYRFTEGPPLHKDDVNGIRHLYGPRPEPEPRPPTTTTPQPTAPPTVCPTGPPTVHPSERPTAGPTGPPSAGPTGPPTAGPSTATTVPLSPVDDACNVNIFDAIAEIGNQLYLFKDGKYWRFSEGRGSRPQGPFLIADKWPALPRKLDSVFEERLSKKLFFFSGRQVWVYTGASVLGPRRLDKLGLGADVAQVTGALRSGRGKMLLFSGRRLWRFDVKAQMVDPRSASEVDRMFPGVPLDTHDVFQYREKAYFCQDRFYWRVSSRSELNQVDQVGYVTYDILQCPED

Which results are given for CC(C)[C@H](NC(=O)[C@H](CC(=O)O)NC(=O)[C@@H]1CCCN1C(=O)[C@H](CC(N)=O)NC(=O)CNC(=O)[C@H](CS)NC(=O)[C@H](CCCNC(=N)N)NC(=O)[C@@H]1CCCN1)C(=O)N[C@@H](C)C(=O)N[C@@H](CC(N)=O)C(=O)N[C@@H](Cc1ccc(O)cc1)C(=O)N[C@@H](CC(N)=O)C(=O)N[C@@H](Cc1ccccc1)C(=O)N[C@@H](Cc1ccccc1)C(=O)N1CCC[C@H]1C(=O)N[C@@H](CCCNC(=N)N)C(=O)N[C@@H](CCCCN)C(=O)N1CCC[C@H]1C(=O)N[C@@H](CCCCN)C(=O)O [Peptide 19-mer]?
time over which MMP-9 catalyzed hydrolysis of collagen is effectively inhibited (MMP-9): > 1000 min; keratinocyte cell growth versus control ([1]; 1×10^−4 M, P<0.001): even greater cell growth; keratinocyte cell density versus control ([1]; 1×10^−5 M, P<0.01): significantly greater cell density; keratinocyte cell proliferation versus control ([1]; 1×10^−6 M, P>0.05): only a small amount of cell proliferation; Percent Neutrophil Migration exp. 1 (neutrophils; 1 μg/mL): 32%; Percent Neutrophil Migration exp. 1 (neutrophils; 10 μg/mL): 22%; Percent Neutrophil Migration exp. 2 (neutrophils; 100 μg/mL): 0%; Percent Neutrophil Migration exp. 1 (neutrophils; 100 μg/mL): 29%; effect on neutrophil migration (neutrophils; 1 mg/mL to 1 μg/mL): did not have an effect on neutrophil migration; Percent Neutrophil Migration exp. 2 (neutrophils; 1 mg/mL): 4%; Percent Neutrophil Migration exp. 1 (neutrophils; 1 mg/mL): 23%; Mean (fibronectin EIA, absorbance at 450 nm) ([2]; 1×10^−4 M): 0.4045; Median (fibronectin EIA, absorbance at 450 nm) ([2]; 1×10^−4 M): 0.4045; Mean (fibronectin EIA, absorbance at 450 nm) ([2]; 1×10^−5 M): 0.2400; Median (fibronectin EIA, absorbance at 450 nm) ([2]; 1×10^−5 M): 0.2400; Mean (fibronectin EIA, absorbance at 450 nm) ([2]; 1×10^−6 M): 0.1895; Median (fibronectin EIA, absorbance at 450 nm) ([2]; 1×10^−6 M): 0.1895; effect on fibronectin stimulation compared with control and 10^−6 M ([2]; 10^−4 M): more than doubled; amount of fibronectin versus control ([2]; all concentrations tested (1×10^−4, 1×10^−5, 1×10^−6 M)): increased the amount of fibronectin present

From patent US7148194B2, “Method to increase fibronectin” (Kimberly-Clark Worldwide, Inc., priority 2002, dated 2006)
